Assay results reported in PMC11500415, “Chemical inhibition of stomatal differentiation by perturbation of the master-regulatory bHLH heterodimer via an ACT-Like domain” (Nature Communications, 2024).
Where “and” joins values, the source holds several entries; their conditions need not be identical. Identical values can stand only once. Like-named read-outs stand apart in the source and are kept apart here.

Experiments:
[1] = target: T1, MUTE (Arabidopsis thaliana, UniProt Q9M8K6); assay: BLI direct binding; design: species or system A. thaliana
T1 construct: MUTE (1-202); made in house; host or cells: E. coli BL21

[2] = target: T2, SCRM (Arabidopsis thaliana, UniProt Q9LSE2); assay: BLI direct binding; design: species or system A. thaliana
T2 construct: SCRM (1-494); made in house; host or cells: E. coli BL21
T2 sequence (Q9LSE2 1-494): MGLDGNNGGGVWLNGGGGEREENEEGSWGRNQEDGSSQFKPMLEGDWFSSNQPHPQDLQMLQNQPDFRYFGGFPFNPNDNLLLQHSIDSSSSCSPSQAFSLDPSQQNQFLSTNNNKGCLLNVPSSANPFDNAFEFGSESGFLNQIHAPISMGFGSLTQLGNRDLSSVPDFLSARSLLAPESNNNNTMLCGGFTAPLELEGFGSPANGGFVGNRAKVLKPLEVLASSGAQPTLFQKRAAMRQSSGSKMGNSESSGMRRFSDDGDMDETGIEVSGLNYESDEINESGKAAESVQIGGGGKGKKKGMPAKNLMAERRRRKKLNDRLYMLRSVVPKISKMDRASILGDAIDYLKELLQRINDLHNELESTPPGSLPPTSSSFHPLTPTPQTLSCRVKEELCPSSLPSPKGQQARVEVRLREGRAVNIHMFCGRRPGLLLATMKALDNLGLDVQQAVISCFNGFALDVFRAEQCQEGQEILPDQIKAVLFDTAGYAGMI

T1 sequence (Q9M8K6 whole entry): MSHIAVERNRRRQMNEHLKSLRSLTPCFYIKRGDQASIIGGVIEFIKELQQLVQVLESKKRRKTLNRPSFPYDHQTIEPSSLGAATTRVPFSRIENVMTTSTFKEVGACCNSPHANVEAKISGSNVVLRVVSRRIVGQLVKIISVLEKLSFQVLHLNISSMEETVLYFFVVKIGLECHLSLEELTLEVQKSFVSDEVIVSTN

Question: Which results are given for `O=C1C(c2ccccc2)=NC(NS(=O)(=O)c2ccccc2)(c2ccccc2)N1S(=O)(=O)c1ccccc1` (stereo not shown) [Stomidazolone]?
Answer: Kd ([1]; BLI steady state, MUTE, read-out: KD (SS)): 0.0089 ± 0.0012 mM; kdis ([1]; MUTE loaded on Anti-GST sensor, fit per sensor, Stomid Conc. 200-3.12, rep-1, rep-2): 0.0392 s⁻¹ and 0.0391 s⁻¹; Kd ([1]; MUTE loaded on Anti-GST sensor, fit per sensor, Stomid Conc. (mM) 200-3.12, rep-1, rep-2, read-out: KD): 0.00896 mM and 0.00929 mM and 0.00909 mM and 0.0092 mM and 0.00905 mM and 0.00911 mM and 0.0091 mM and 0.00897 mM and 0.00907 mM and 0.00902 mM and 0.00906 mM; RMax ([1]; MUTE, Conc. 3.12, rep-1, rep-2): 0.125 and 0.165; Req/Rmax(%) ([1]; MUTE, Conc. 3.12, rep-1, rep-2): 100%; Response ([1]; MUTE, Conc. 3.12, rep-1, rep-2): 0.1223 and 0.1634; RMax ([1]; MUTE, Conc. 6.25, rep-1, rep-2): 0.275 and 0.215; Req/Rmax(%) ([1]; MUTE, Conc. 6.25, rep-1, rep-2): 97% and 100%; Response ([1]; MUTE, Conc. 6.25, rep-1, rep-2): 0.2732 and 0.2105; RMax ([1]; MUTE, Conc. 12.5, rep-1, rep-2): 0.425 and 0.395; Response ([1]; MUTE, Conc. 12.5, rep-1, rep-2): 0.4108 and 0.3912; RMax ([1]; MUTE, Conc. 25, rep-1, rep-2): 0.525 and 0.47; Response ([1]; MUTE, Conc. 25, rep-1, rep-2): 0.5211 and 0.4645; RMax ([1]; MUTE, Conc. 50, rep-1, rep-2): 0.55 and 0.585; Req/Rmax(%) ([1]; MUTE, Conc. 50, rep-1, rep-2): 89%; Response ([1]; MUTE, Conc. 50, rep-1, rep-2): 0.5313 and 0.5832; RMax ([1]; MUTE, Conc. 100, rep-1, rep-2): 0.605 and 0.635; Response ([1]; MUTE, Conc. 100, rep-1, rep-2): 0.5932 and 0.6302; RMax ([1]; MUTE, Conc. 200, rep-1, rep-2): 0.615 and 0.645; Req/Rmax(%) ([1]; MUTE, Conc. 200, rep-1, rep-2): 98%; Response ([1]; MUTE, Conc. 200, rep-1, rep-2): 0.606 and 0.634; koff ([1]; read-out: kdis(1/s), MUTE loaded on Anti-GST sensor, fit per sensor, Stomid Conc. 200-3.12, rep-1, rep-2): 0.0393 s⁻¹; kon ([1]; read-out: kon(1/Ms), MUTE loaded on Anti-GST sensor, fit per sensor, Stomid Conc. 200-3.12, rep-1, rep-2): 4380 M⁻¹ s⁻¹; Kd ([2]; BLI steady state, read-out: KD (SS)): 68.5 ± 5.6 µM; Kd ([2]; BLI, read-out: KD): 65.5 ± 0.6 µM
